Assay [1] deals with T1, Polyamine deacetylase HDAC10 (Homo sapiens, UniProt Q969S8).
T1 sequence (Q969S8 whole entry): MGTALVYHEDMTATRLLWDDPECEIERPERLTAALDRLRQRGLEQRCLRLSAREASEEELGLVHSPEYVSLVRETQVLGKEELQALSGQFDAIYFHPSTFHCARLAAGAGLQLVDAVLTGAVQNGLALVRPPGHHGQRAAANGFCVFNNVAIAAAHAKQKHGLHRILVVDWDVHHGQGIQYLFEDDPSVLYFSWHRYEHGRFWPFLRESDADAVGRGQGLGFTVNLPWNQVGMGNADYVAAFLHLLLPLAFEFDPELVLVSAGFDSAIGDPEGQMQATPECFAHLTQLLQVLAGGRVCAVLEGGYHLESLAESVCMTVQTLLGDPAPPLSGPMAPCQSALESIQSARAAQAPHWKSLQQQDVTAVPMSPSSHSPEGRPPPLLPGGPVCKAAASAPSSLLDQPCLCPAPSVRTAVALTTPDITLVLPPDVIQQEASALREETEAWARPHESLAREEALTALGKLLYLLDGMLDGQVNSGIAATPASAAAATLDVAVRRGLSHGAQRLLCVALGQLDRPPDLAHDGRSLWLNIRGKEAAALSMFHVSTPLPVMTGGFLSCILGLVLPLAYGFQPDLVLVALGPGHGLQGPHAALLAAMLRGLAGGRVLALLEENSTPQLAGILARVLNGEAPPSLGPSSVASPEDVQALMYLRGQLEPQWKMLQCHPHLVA
The assay can be described thus: Inhibition of HDAC10 (unknown origin) by fluorescence assay.

For the next assay, the system named is SH-SY5Y. The assay is described as follows: Cytotoxicity against human SH-SY5Y cells assessed as reduction in cell viability after 3 days by MTS assay. It counts as functional. Conditions: for GI50: 72 h.
For the next assay, the target named is Histone deacetylase 9 (Homo sapiens, UniProt Q9UKV0). The assay can be described thus: Inhibition of human recombinant HDAC9 using fluorogenic HDAC substrate class 2A by fluorescence assay.
The next assay addresses T2, Histone deacetylase 8 (Homo sapiens, UniProt Q9BY41).
T2 sequence (Q9BY41 whole entry): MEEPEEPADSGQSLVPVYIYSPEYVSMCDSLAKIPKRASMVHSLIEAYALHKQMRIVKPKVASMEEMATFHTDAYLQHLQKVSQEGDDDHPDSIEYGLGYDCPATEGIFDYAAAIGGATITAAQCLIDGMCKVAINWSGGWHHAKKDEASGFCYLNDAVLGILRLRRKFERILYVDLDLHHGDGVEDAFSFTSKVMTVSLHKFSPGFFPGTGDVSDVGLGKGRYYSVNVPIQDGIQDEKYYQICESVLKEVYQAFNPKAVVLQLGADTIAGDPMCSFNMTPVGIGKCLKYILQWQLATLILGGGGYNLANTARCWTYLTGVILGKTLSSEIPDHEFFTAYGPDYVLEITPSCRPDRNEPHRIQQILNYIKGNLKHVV
The assay can be described thus: Inhibition of human recombinant HDAC8 using fluorogenic HDAC substrate class 2A by fluorescence assay.

The target in another assay is Histone deacetylase 3 (Homo sapiens, UniProt O15379). The assay is described as follows: Inhibition of human recombinant HDAC3 using fluorogenic HDAC substrate-3 by fluorescence assay.
In another assay the target is Histone deacetylase 4 (Homo sapiens, UniProt P56524). The assay is described as follows: Inhibition of human recombinant HDAC4 using fluorogenic HDAC substrate class 2A by fluorescence assay.
Assay [2] has as its target T3, Protein deacetylase HDAC6 (Homo sapiens) (UniProt Q9UBN7).
T3 sequence (whole entry): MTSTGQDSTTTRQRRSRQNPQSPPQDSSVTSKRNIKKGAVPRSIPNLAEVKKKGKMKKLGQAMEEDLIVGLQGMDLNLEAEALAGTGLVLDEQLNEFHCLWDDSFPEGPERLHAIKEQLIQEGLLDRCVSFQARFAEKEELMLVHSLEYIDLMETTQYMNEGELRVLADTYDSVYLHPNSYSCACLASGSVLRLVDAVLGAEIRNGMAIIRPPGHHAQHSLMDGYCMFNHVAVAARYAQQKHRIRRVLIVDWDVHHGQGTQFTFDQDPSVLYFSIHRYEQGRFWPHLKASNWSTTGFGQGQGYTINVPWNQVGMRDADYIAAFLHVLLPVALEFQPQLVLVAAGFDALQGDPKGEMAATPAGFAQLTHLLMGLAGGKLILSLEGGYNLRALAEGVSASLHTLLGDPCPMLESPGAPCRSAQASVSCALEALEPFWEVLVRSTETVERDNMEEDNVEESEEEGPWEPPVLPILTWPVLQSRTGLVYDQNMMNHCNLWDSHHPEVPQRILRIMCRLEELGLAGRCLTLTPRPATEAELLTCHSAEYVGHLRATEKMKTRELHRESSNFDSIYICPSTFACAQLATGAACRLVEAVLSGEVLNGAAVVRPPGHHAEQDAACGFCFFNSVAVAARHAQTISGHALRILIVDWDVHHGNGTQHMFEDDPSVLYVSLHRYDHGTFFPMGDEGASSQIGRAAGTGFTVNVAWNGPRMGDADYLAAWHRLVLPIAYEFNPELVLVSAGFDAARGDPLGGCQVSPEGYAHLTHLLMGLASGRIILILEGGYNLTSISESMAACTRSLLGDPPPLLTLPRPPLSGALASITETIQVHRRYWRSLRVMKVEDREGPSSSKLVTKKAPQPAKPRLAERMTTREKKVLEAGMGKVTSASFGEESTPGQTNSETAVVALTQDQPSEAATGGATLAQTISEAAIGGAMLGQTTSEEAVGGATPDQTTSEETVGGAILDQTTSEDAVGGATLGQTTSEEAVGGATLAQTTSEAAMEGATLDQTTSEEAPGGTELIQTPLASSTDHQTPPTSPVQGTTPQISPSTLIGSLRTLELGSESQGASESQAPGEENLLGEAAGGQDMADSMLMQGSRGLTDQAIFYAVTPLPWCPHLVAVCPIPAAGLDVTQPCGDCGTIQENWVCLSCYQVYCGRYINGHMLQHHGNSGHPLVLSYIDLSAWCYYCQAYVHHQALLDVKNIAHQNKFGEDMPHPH
The assay can be described thus: Inhibition of HDAC6 in human SH-SY5Y cells assessed as increase in alpha-tubulin acetylation at 0.5 uM after 24 hrs by Western blot analysis. It counts as cell-based.

Assay [3] addresses T3, Protein deacetylase HDAC6 (Homo sapiens). The assay can be described thus: Inhibition of HDAC6 in human H1975 cells assessed as alpha-tubulin acetylation up to 10 uM after 24 hrs by Hoechst staining-based fluorescence microscopic analysis. It counts as cell-based.
The next assay has as its target Histone deacetylase 5 (Homo sapiens, UniProt Q9UQL6). The assay can be described thus: Inhibition of human recombinant HDAC5 using fluorogenic HDAC substrate class 2A by fluorescence assay.
Assay [4] concerns the target T3, Protein deacetylase HDAC6 (Homo sapiens). The assay can be described thus: Inhibition of HDAC6 in human SH-SY5Y cells assessed as increase in alpha-tubulin acetylation after 24 hrs by Western blot analysis. It counts as cell-based. Background: Immunoblotting shows a protein as a band on a membrane.
For assay [5], the target named is T4, Histone deacetylase 1 (Homo sapiens, UniProt Q13547). The assay can be described thus: Inhibition of HDAC1 in human SH-SY5Y cells assessed as increase in histone H3 acetylation up to 20 uM after 24 hrs by Western blot analysis. It counts as cell-based.
The next assay addresses T5, Histone deacetylase 11 (Homo sapiens, UniProt Q96DB2).
T5 sequence (Q96DB2 whole entry): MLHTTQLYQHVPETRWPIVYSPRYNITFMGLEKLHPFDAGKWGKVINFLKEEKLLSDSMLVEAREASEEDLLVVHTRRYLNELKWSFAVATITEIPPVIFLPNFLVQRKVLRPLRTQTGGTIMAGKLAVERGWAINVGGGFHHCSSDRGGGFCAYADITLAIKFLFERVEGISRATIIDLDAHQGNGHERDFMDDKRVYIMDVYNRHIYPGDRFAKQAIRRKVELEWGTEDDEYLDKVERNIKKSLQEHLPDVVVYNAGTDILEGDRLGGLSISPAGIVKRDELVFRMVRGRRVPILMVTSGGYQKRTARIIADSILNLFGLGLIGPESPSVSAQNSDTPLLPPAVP
The assay can be described thus: Inhibition of human recombinant HDAC11 using fluorogenic HDAC substrate class 2A by fluorescence assay.

For another assay, the target named is Histone deacetylase 2 (Homo sapiens, UniProt Q92769). The assay can be described thus: Inhibition of HDAC2 (unknown origin) using fluorogenic HDAC substrate-3 by fluorescence assay.
In assay [6] the target is T6, Protein deacetylase HDAC6 (Homo sapiens, UniProt Q9UBN7).
T6 sequence (Q9UBN7 whole entry): T3 sequence (whole entry)
The assay can be described thus: Inhibition of human recombinant HDAC6 using fluorogenic HDAC substrate-3 by fluorescence assay.

Assay [7] addresses T4, Histone deacetylase 1. The assay can be described thus: Inhibition of human recombinant HDAC1 using fluorogenic HDAC substrate-3 by fluorescence assay.
Assay [8] addresses T3, Protein deacetylase HDAC6 (Homo sapiens). The assay can be described thus: Inhibition of HDAC6 in human H1975 cells assessed as microtubule polymerization up to 10 uM after 24 hrs by Hoechst staining-based fluorescence microscopic analysis. It counts as cell-based.
For a further assay, the target named is T7, Histone deacetylase 7 (Homo sapiens, UniProt Q8WUI4).
T7 sequence (Q8WUI4 whole entry): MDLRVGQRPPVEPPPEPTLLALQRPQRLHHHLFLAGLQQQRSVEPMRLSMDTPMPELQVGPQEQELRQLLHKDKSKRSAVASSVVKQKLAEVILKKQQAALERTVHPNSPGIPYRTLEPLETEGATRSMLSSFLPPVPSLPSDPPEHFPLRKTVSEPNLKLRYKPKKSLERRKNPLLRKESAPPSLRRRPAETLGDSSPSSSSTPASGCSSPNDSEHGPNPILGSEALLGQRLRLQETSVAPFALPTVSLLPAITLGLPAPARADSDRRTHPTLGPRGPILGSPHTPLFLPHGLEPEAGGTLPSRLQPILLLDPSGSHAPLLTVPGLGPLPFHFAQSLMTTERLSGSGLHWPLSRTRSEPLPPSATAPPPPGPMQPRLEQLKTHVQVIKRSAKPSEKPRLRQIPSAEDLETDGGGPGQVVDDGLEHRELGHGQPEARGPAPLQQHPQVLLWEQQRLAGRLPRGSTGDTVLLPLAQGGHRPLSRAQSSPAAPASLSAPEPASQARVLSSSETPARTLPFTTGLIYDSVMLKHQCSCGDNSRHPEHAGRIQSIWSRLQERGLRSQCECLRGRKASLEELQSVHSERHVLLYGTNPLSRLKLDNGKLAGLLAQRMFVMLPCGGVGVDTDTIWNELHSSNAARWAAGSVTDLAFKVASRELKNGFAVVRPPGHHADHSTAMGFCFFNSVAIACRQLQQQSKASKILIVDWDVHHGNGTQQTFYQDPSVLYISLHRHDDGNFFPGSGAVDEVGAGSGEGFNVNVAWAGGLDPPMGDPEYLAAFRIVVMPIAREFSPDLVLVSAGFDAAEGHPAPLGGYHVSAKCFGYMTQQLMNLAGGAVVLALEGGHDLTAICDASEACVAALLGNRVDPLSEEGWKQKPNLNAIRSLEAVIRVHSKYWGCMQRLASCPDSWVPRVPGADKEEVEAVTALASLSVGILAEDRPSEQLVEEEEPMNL
The assay is described as follows: Inhibition of human recombinant HDAC7 using fluorogenic HDAC substrate class 2A by fluorescence assay.

This note sets out measurements from ChEMBL document CHEMBL4422624, “A novel class of anthraquinone-based HDAC6 inhibitors” (Eur J Med Chem, 2019).

pIC50: −log10 of the molar value. Activity calls are given as the source filed them. The calls are words filed in the database; no cut-off is given here.

T4 sequence (Q13547 whole entry): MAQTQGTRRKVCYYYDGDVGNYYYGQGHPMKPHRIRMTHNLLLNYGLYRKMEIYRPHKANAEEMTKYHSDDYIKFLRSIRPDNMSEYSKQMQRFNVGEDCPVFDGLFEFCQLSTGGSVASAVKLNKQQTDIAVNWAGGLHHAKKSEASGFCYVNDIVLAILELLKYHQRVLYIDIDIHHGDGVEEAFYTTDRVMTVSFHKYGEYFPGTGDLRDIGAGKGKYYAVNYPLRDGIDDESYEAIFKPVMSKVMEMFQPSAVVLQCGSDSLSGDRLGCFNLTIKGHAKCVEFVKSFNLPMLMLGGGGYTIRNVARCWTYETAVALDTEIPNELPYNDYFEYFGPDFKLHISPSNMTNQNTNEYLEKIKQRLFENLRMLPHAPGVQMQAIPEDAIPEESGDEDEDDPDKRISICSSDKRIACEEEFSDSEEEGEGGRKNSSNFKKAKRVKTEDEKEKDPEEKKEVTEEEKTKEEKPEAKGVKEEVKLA
Sequence of Histone deacetylase 2 (Q92769 whole entry): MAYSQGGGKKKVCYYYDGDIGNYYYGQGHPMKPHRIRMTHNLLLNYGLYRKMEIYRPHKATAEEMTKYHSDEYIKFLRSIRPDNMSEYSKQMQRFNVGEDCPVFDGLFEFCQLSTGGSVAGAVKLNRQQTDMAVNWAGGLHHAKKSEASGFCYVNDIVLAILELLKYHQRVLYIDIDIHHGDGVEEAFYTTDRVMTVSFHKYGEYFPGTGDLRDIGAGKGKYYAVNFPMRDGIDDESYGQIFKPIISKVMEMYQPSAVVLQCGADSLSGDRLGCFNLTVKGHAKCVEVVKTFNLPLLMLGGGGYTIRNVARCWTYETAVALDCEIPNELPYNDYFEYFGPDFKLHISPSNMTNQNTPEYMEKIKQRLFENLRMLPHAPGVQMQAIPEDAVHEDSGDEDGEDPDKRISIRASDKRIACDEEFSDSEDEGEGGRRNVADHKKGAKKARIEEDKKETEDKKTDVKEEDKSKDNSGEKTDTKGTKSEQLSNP
Sequence of Histone deacetylase 3 (O15379 whole entry): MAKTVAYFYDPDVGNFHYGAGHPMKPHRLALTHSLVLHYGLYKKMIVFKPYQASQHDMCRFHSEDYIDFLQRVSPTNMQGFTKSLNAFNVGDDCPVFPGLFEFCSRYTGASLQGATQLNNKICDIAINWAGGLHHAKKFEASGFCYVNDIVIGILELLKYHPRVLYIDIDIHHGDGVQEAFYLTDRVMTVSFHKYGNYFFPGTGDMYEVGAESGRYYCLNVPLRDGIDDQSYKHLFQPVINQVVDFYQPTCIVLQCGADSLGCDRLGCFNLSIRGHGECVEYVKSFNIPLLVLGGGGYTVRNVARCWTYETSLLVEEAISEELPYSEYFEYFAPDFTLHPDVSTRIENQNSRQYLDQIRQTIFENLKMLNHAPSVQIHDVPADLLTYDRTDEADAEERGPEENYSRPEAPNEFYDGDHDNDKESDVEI
Sequence of Histone deacetylase 4 (P56524 whole entry): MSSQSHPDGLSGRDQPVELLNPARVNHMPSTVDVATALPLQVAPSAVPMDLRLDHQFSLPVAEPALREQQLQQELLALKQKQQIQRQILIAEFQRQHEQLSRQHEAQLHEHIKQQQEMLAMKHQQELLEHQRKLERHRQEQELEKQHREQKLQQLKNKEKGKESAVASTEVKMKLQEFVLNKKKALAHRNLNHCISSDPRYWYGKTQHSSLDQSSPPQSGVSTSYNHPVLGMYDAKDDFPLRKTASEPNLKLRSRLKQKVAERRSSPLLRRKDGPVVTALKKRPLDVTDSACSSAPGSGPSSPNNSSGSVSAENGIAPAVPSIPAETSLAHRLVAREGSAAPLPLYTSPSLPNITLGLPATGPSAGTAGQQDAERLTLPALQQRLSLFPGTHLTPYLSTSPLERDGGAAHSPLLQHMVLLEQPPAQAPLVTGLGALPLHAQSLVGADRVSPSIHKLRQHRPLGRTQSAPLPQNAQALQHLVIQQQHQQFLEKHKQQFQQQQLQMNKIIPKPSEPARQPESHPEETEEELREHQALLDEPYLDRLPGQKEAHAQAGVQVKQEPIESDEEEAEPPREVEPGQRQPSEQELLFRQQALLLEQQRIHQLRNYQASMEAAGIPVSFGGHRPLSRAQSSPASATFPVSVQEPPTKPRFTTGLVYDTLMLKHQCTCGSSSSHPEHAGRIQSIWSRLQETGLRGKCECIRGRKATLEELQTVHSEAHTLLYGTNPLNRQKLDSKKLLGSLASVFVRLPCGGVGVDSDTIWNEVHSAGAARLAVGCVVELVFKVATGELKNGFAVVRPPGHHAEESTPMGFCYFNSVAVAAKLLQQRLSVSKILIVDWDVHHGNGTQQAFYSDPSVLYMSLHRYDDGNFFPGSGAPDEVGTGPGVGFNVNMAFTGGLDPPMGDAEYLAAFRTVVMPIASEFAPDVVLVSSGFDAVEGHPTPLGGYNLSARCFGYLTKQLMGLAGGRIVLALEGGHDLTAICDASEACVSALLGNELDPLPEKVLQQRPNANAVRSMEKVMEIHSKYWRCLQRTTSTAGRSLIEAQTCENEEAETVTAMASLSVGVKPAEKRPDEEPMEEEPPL
Sequence of Histone deacetylase 5 (Q9UQL6 whole entry): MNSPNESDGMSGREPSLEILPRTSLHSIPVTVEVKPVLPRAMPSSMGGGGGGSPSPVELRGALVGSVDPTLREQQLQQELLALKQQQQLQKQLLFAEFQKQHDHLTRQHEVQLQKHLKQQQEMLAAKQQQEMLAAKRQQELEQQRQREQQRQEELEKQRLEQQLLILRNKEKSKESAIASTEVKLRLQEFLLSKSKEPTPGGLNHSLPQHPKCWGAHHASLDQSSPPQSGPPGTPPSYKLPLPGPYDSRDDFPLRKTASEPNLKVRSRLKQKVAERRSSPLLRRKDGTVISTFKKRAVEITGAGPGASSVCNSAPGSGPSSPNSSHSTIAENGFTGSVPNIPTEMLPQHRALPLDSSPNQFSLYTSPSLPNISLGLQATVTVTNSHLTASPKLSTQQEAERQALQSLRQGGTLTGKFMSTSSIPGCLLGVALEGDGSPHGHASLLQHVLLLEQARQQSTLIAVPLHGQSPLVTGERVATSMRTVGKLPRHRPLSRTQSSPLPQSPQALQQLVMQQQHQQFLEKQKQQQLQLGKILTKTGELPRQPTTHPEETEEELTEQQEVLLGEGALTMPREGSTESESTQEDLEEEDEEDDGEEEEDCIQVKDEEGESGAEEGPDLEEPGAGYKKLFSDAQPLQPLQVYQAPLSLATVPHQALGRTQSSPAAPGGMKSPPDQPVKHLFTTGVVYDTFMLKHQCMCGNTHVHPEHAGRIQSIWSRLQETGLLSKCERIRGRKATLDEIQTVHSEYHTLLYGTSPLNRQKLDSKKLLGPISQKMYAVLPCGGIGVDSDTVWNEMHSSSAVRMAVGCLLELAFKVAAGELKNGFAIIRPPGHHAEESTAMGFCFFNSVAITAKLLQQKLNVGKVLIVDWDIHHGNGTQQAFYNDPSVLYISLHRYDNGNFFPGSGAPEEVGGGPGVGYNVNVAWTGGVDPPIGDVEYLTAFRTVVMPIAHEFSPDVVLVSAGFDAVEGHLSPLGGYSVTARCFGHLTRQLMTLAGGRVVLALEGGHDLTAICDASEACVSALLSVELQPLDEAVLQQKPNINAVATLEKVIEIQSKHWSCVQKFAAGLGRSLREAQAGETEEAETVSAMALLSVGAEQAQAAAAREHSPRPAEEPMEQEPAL
Sequence of Histone deacetylase 9 (Q9UKV0 whole entry): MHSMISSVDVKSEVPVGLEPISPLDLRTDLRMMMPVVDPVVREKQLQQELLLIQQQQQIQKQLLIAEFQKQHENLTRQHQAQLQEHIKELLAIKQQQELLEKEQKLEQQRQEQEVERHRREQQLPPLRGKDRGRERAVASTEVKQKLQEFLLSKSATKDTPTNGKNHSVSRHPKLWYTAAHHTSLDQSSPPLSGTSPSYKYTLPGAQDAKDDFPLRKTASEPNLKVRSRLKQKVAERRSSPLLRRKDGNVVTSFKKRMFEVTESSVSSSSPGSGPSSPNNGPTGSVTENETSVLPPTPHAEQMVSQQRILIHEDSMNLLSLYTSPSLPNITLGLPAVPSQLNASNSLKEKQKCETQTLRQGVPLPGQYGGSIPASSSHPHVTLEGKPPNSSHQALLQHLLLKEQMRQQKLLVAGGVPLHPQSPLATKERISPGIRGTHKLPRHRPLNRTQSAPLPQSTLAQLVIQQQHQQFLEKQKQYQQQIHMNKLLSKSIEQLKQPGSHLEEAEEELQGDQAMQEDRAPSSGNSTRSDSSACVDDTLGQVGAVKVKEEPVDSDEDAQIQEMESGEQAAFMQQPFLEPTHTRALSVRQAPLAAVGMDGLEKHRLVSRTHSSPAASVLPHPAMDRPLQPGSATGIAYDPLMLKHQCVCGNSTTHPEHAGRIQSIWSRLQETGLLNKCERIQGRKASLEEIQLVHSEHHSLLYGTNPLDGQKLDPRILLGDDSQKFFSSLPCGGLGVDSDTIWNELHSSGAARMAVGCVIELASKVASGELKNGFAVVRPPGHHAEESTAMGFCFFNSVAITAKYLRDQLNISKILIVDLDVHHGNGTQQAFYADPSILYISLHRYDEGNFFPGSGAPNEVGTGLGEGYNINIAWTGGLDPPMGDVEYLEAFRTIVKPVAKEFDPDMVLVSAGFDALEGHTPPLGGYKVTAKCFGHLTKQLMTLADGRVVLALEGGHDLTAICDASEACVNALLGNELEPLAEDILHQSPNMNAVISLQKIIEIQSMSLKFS

Broadly, the pIC50 is the negative decadic logarithm of the IC50, by convention in mol/L. As a reminder, the GI50 is the concentration at which growth is held to half of that of the control. `O=C(NO)c1ccc2c(c1)C(=O)c1ccccc1C2=O`: the pIC50 is 5.30 in assay [1]; 5.11 at Histone deacetylase 9; 6.22 at Histone deacetylase 8; 5.40 on Histone deacetylase 3; 5.25 at Histone deacetylase 4; 5.87 at Histone deacetylase 5. Moreover, the pIC50 at Histone deacetylase 11 is 4.10; on Histone deacetylase 2, 5.34; in assay [6] it was 7.25; on Histone deacetylase 1 [7], 6.04. Also, the Activity entry in the assay with SH-SY5Y was “Dose-dependent effect”. Besides, in the assay with SH-SY5Y, the GI50 is 15.8 µM. In addition, the inhibition result in [2], in assay [3] and in assay [8] was “Active” in each case. Besides, the inhibition result in [4] is “Dose-dependent effect”. Further, the inhibition entry at Histone deacetylase 1 [5] is “inactive”.
As to `O=C(/C=C/c1ccc2c(c1)C(=O)c1ccccc1C2=O)NO`, the negative logarithm of the IC50 (pIC50) was 5.83 in assay [1]; less than 4.00 on Histone deacetylase 9; less than 4.00 at Histone deacetylase 8; 5.70 on Histone deacetylase 3; 4.79 at Histone deacetylase 4; less than 4.00 on Histone deacetylase 7. The pIC50 is 5.07 on Histone deacetylase 5; less than 4.00 on Histone deacetylase 11; 4.87 against Histone deacetylase 2; 6.27 in [6]; 5.51 at Histone deacetylase 1 [7]. Moreover, in the assay on SH-SY5Y, the Activity entry is “Dose-dependent effect”. In the assay on SH-SY5Y, the concentration for 50% growth inhibition (GI50) turned out to be 22.3 µM.
